Experimental data from PubChem BioAssay (NCI).
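1) Cells in 96-well plates. 2) Compound, 48 h, 5 concentrations. 3) Linear interpolation between surrounding doses. 4) Unreached endpoint = highest concentration. Abbreviation: GI50, concentration required for 50% inhibition of growth. TGI marks complete inhibition of growth.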

What was measured:
Assay in all cases: inhibition of tumour cell growth, NCI panel, 48 h
[1] = system: COLO 205 colon
[2] = system: HT29 colon
[3] = system: MOLT-4 leukemia
[4] = system: T-47D breast
[5] = system: SN12C renal
[6] = system: OVCAR-5 ovarian
[7] = system: MALME-3M melanoma
[8] = system: BT-549 breast
[9] = system: SK-OV-3 ovarian
[10] = system: IGROV1 ovarian
[11] = system: NCI/ADR-RES ovarian
[12] = system: ACHN renal
[13] = system: CCRF-CEM leukemia
[14] = system: U251 CNS
[15] = system: NCI-H226 lung
[16] = system: HCC-2998 colon
[17] = system: SNB-19 CNS
[18] = system: MDA-MB-231 breast
[19] = system: RPMI-8226 leukemia
[20] = system: OVCAR-3 ovarian
[21] = system: SR leukemia
[22] = system: OVCAR-4 ovarian
[23] = system: HL-60(TB) leukemia
[24] = system: SK-MEL-5 melanoma
[25] = system: UACC-62 melanoma
[26] = system: CAKI-1 renal
[27] = system: NCI-H23 lung
[28] = system: SF-539 CNS
[29] = system: DU-145 prostate
[30] = system: MDA-MB-435
[31] = system: SK-MEL-2 melanoma
[32] = system: HOP-92 NSCLC
[33] = system: MCF7 breast
[34] = system: UACC-257 melanoma
[35] = system: HCT-116 colon
[36] = system: PC-3 prostate
[37] = system: M14 melanoma
[38] = system: SNB-75 CNS
[39] = system: RXF 393 renal
[40] = system: UO-31 renal
[41] = system: SF-295 CNS
[42] = system: HCT-15 colon
[43] = system: KM12 colon
[44] = system: K-562 leukemia
[45] = system: A498 renal
[46] = system: SK-MEL-28 melanoma
[47] = system: HOP-62 NSCLC
[48] = system: 786-0 renal
[49] = system: SW-620 colon
[50] = system: A549 NSCLC
[51] = system: MDA-MB-468 breast
[52] = system: OVCAR-8 ovarian
[53] = system: TK-10 renal
[54] = system: LOX IMVI melanoma
[55] = system: EKVX NSCLC
[56] = system: NCI-H460 lung
[57] = system: SF-268 CNS
[58] = system: NCI-H522 lung
[59] = system: HS 578T breast

`COc1cc2c(cc1OC)/C(=C\c1sc(Nc3ccc(O)cc3)nc1O)C(C(=O)O)=N2` was tested, and the GI50 [1] was 1440 nM, the TGI [1] was 9070 nM and the GI50 [2] was 2830 nM. The TGI [2] was 26000 nM, the GI50 [3] was 446 nM and the TGI [3] was greater than 100000 nM. For the same molecule, the GI50 [4] was 2910 nM, the TGI [4] was greater than 100000 nM and the GI50 [5] was 2050 nM. The TGI [5] was greater than 100000 nM, the GI50 [6] was 4510 nM and the TGI [6] was greater than 100000 nM. For the same molecule, the GI50 [7] was 336 nM, the TGI [7] was greater than 100000 nM and the GI50 [8] was 654 nM. For the same molecule, the TGI [8] was 75000 nM, the GI50 [9] was 817 nM and the TGI [9] was greater than 100000 nM. For the same molecule, the GI50 [10] was 2700 nM, the TGI [10] was greater than 100000 nM and the GI50 [11] was greater than 100000 nM. It also gave a TGI [11] greater than 100000 nM, a GI50 [12] of 6530 nM and a TGI [12] greater than 100000 nM. It also gave a GI50 [13] of 413 nM, a TGI [13] greater than 100000 nM and a GI50 [14] of 353 nM. It also gave a TGI [14] of 16700 nM, a GI50 [15] of 16600 nM and a TGI [15] greater than 100000 nM. The GI50 [16] was 631 nM, the TGI [16] was greater than 100000 nM and the GI50 [17] was 462 nM. The TGI [17] was 27800 nM, the GI50 [18] was 1320 nM and the TGI [18] was 63300 nM. For the same molecule, the GI50 [19] was 5170 nM, the TGI [19] was greater than 100000 nM and the GI50 [20] was 287 nM. It also gave a TGI [20] of 797 nM, a GI50 [21] of 277 nM and a TGI [21] greater than 100000 nM. For the same molecule, the GI50 [22] was 4570 nM, the TGI [22] was greater than 100000 nM and the GI50 [23] was 291 nM. The TGI [23] was 986 nM, the GI50 [24] was 510 nM and the TGI [24] was 28400 nM. It also gave a GI50 [25] of 498 nM, a TGI [25] greater than 100000 nM and a GI50 [26] of 95500 nM. For the same molecule, the TGI [26] was greater than 100000 nM, the GI50 [27] was 815 nM and the TGI [27] was 41800 nM. For the same molecule, the GI50 [28] was 456 nM, the TGI [28] was 2760 nM and the GI50 [29] was 588 nM. The TGI [29] was 33300 nM, the GI50 [30] was 187 nM and the TGI [30] was 389 nM. The GI50 [31] was 586 nM, the TGI [31] was 86300 nM and the GI50 [32] was 5890 nM. It also gave a TGI [32] of 91600 nM, a GI50 [33] of 394 nM and a TGI [33] greater than 100000 nM. The GI50 [34] was 1910 nM, the TGI [34] was greater than 100000 nM and the GI50 [35] was 489 nM. For the same molecule, the TGI [35] was greater than 100000 nM, the GI50 [36] was 666 nM and the TGI [36] was greater than 100000 nM. It also gave a GI50 [37] of 376 nM, a TGI [37] of 30000 nM and a GI50 [38] of 217 nM. It also gave a TGI [38] of 2950 nM, a GI50 [39] of 527 nM and a TGI [39] of 3210 nM. The GI50 [40] was 4200 nM, the TGI [40] was greater than 100000 nM and the GI50 [41] was 498 nM. The TGI [41] was 14100 nM, the GI50 [42] was 783 nM and the TGI [42] was greater than 100000 nM. For the same molecule, the GI50 [43] was 557 nM, the TGI [43] was greater than 100000 nM and the GI50 [44] was 369 nM. It also gave a TGI [44] greater than 100000 nM, a GI50 [45] of 32100 nM and a TGI [45] greater than 100000 nM. It also gave a GI50 [46] of 842 nM, a TGI [46] greater than 100000 nM and a GI50 [47] of 620 nM. The TGI [47] was 59100 nM, the GI50 [48] was 513 nM and the TGI [48] was 45100 nM. It also gave a GI50 [49] of 449 nM, a TGI [49] greater than 100000 nM and a GI50 [50] of 21600 nM. For the same molecule, the TGI [50] was greater than 100000 nM, the GI50 [51] was 1120 nM and the TGI [51] was 5290 nM. For the same molecule, the GI50 [52] was 775 nM, the TGI [52] was greater than 100000 nM and the GI50 [53] was 5730 nM. For the same molecule, the TGI [53] was greater than 100000 nM, the GI50 [54] was 501 nM and the TGI [54] was greater than 100000 nM. It also gave a GI50 [55] of 11200 nM, a TGI [55] greater than 100000 nM and a GI50 [56] of 954 nM. For the same molecule, the TGI [56] was greater than 100000 nM, the GI50 [57] was 581 nM and the TGI [57] was greater than 100000 nM.
Molecule `Cc1ccc(C(=O)NN2C(=O)/C(=C/C=C/c3ccc([N+](=O)[O-])o3)SC2=S)cc1` has a GI50 [1] of 348 nM, a TGI [1] of 1070 nM and a GI50 [2] of 222 nM. It also gave a TGI [2] of 542 nM, a GI50 [3] of 294 nM and a TGI [3] of 2670 nM. The GI50 [4] was 1730 nM, the TGI [4] was 3480 nM and the GI50 [5] was 207 nM. The TGI [5] was 535 nM, the GI50 [6] was 1430 nM and the TGI [6] was 2790 nM. The GI50 [7] was 177 nM, the TGI [7] was 378 nM and the GI50 [8] was 218 nM. It also gave a TGI [8] of 705 nM, a GI50 [9] of 1770 nM and a TGI [9] of 3350 nM. The GI50 [10] was 811 nM, the TGI [10] was 2110 nM and the GI50 [11] was 1220 nM. The TGI [11] was 2880 nM, the GI50 [12] was 684 nM and the TGI [12] was 1860 nM. For the same molecule, the GI50 [13] was 238 nM, the TGI [13] was 826 nM and the GI50 [14] was 701 nM. For the same molecule, the TGI [14] was 1970 nM, the GI50 [15] was 509 nM and the TGI [15] was 1240 nM. The GI50 [16] was 486 nM, the TGI [16] was 1720 nM and the GI50 [17] was 1610 nM. It also gave a TGI [17] of 3010 nM, a GI50 [18] of 185 nM and a TGI [18] of 373 nM. The GI50 [19] was 267 nM, the TGI [19] was 1170 nM and the GI50 [20] was 752 nM. It also gave a TGI [20] of 2630 nM, a GI50 [21] of 46.8 nM and a TGI [21] greater than 100000 nM. It also gave a GI50 [22] of 1600 nM, a TGI [22] of 3100 nM and a GI50 [23] of 1880 nM. It also gave a TGI [23] of 10500 nM, a GI50 [24] of 337 nM and a TGI [24] of 1240 nM. For the same molecule, the GI50 [25] was 378 nM, the TGI [25] was 1210 nM and the GI50 [26] was 911 nM. It also gave a TGI [26] of 2190 nM, a GI50 [27] of 337 nM and a TGI [27] of 1170 nM. The GI50 [28] was 251 nM, the TGI [28] was 718 nM and the GI50 [29] was 1500 nM. For the same molecule, the TGI [29] was 2920 nM, the GI50 [30] was 267 nM and the TGI [30] was 800 nM. The GI50 [31] was 283 nM, the TGI [31] was 904 nM and the GI50 [32] was 245 nM. It also gave a TGI [32] of 893 nM, a GI50 [33] of 413 nM and a TGI [33] of 1890 nM. The GI50 [34] was 1670 nM, the TGI [34] was 3550 nM and the GI50 [35] was 139 nM. It also gave a TGI [35] of 290 nM, a GI50 [36] of 1140 nM and a TGI [36] of 3000 nM. For the same molecule, the GI50 [37] was 202 nM, the TGI [37] was 436 nM and the GI50 [38] was 1300 nM. For the same molecule, the TGI [38] was 3170 nM, the GI50 [58] was 185 nM and the TGI [58] was 363 nM. It also gave a GI50 [39] of 789 nM, a TGI [39] of 2140 nM and a GI50 [40] of 1210 nM. For the same molecule, the TGI [40] was 2450 nM, the GI50 [59] was 1860 nM and the TGI [59] was 6540 nM. For the same molecule, the GI50 [41] was 1760 nM, the TGI [41] was 3480 nM and the GI50 [42] was 125 nM. The TGI [42] was 295 nM, the GI50 [43] was 1160 nM and the TGI [43] was 4490 nM. For the same molecule, the GI50 [44] was 188 nM, the TGI [44] was 3480 nM and the GI50 [45] was 9160 nM. It also gave a TGI [45] of 22900 nM, a GI50 [46] of 1090 nM and a TGI [46] of 2310 nM. For the same molecule, the GI50 [47] was 1600 nM, the TGI [47] was 3120 nM and the GI50 [48] was 451 nM. It also gave a TGI [48] of 1620 nM, a GI50 [49] of 181 nM and a TGI [49] of 389 nM. The GI50 [50] was 2180 nM, the TGI [50] was 5900 nM and the GI50 [51] was 1500 nM. For the same molecule, the TGI [51] was 3120 nM, the GI50 [52] was 292 nM and the TGI [52] was 1020 nM. The GI50 [53] was 1680 nM, the TGI [53] was 3580 nM and the GI50 [54] was 179 nM. The TGI [54] was 352 nM, the GI50 [55] was 543 nM and the TGI [55] was 1850 nM. For the same molecule, the GI50 [56] was 399 nM, the TGI [56] was 1570 nM and the GI50 [57] was 1960 nM. It also gave a TGI [57] of 4820 nM.
